From US12258336B2, “Preparation of seimicarbazide-sensitive amine oxidase inhibitor and use thereof” (SHANGHAI ENNOVABIO PHARMACEUTICALS CO., LTD., priority 2018, dated 2025) come the findings set out here.

SMILES strings stand for the structures. Where two headings read alike, the source gives them in different places.

The experiment has as its target T1, SSAO/VAP-1 (Rattus norvegicus, UniProt O08590).
T1 construct: from tissue; host or cells: rat plasma, brain, retina, small intestine, lung, liver, kidney
T1 sequence (O08590 1-763): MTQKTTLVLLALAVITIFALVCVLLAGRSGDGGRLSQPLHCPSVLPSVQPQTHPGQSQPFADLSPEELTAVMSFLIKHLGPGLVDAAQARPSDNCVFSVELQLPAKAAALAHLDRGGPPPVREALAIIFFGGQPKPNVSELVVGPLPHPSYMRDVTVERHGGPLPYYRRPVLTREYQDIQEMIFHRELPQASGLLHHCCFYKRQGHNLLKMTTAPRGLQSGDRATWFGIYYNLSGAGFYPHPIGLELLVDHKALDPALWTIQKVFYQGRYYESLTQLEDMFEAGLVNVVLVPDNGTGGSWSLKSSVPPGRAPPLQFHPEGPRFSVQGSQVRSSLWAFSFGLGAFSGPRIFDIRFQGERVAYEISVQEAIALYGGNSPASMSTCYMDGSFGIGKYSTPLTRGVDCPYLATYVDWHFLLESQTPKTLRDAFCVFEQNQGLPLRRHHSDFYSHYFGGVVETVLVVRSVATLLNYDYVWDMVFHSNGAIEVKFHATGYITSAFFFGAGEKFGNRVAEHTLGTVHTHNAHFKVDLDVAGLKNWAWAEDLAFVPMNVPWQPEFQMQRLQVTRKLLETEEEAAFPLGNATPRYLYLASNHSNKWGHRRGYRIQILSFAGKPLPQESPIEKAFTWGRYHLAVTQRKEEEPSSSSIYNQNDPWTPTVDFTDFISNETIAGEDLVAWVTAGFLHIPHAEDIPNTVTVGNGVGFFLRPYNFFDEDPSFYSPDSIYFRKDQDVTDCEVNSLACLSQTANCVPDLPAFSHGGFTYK
Put plainly: Inhibitory activity on SSAO/VAP-1 in animal tissues after oral administration. To be noted: 24 hours post single administration, mean ± SEM. Type of experiment: in vivo. The protocol: MAO-Glo Assay kit (Promega, V1402) was used to determine the activity of SSAO in animal tissues. After test compounds were adminstered to the animal, SSAO enzyme activity was calculated by measuring the activity of the monoamine oxidases in the animal tissue homogenate that was insensitive to MAO inhibitors Clogyline and Pargyline. The compounds were orally administered to rats at different doses, and same volume of vehicle was orally administered to control animals. Animal plasma, brain, retina, small intestine, lung, liver, and kidney were respectively collected 24 hours after administration (the animals were perfused with PBS before the collection of small intestine, lung, liver, and kidney) and stored in a −80° C. refrigerator until analysis. Each tissue was homogenized in tissue homogenate lysis buffer (20 mM HEPES, pH 7.4, 150 mM NaCl, 1 mM EDTA, 1 mM EGTA, 1% Triton X-100 and 1× Roche Complete protease inhibitor tablet). The homogenate was centrifuged at 12000 rpm at 4° C. for 30 minutes to remove tissue fragments. 5 μL of supernatant and 2 μL of mixture of Clogyline (10 μM) and Pargyline (10 μM) were incubated for 10 minutes at room temperature. Then 2 μL of substrate from MAO-Glo assay kit was added to the mixture, and reacted at room temperature for 60 minutes. Detection reagents were added to quench the reaction according to instructions. The fluorescein data was read by Biotek Neo2. The activity of monoamine oxidase in tissues that is not sensitive to MAO inhibitors was used to represent the activity of SSAO. Percentage of SSAO activity in administered animals was compared with that of control animals to calculate the compound inhibition rate.

Where [1] appears, read: brain, read-out: remaining SSAO activity percentage (SSAO activity %), Brain.
Where [2] appears, read: plasma, read-out: remaining SSAO activity percentage (SSAO activity %), Plasma.
Where [3] appears, read: retina, read-out: remaining SSAO activity percentage (SSAO activity %), Retina.
The mark [4] stands for this setting: kidney, read-out: remaining SSAO activity percentage (SSAO activity %), kidney.
The mark [5] stands for this setting: liver, read-out: remaining SSAO activity percentage (SSAO activity %), Liver.
Setting [6] is: lung, read-out: remaining SSAO activity percentage (SSAO activity %), Lung.
The mark [7] stands for this setting: small intestine, read-out: remaining SSAO activity percentage (SSAO activity %), Small intestine.

The term remaining activity denotes the signal under treatment as a percentage of the control signal.

Turning to `COC1CC2CC1CN2c1ncc(OC/C(=C/F)CN)cn1` (stereo not shown) [Example 2], the remaining activity at 0.6 mg/kg by setting is: under setting [1], 49.1 ± 21.2%; under setting [2], 24.3 ± 5.2%; under setting [3], 28.7 ± 8.5%.

As for `CC1(C)CN(c2ncc(OC/C(=C/F)CN)cn2)CCN1C1COC1` [Example 10], the remaining activity at 0.6 mg/kg by setting is: under setting [1], 27.3 ± 1.8%; under setting [2], 5.8 ± 2.1%; under setting [3], 8 ± 0.8%.

As to `NC/C(=C\F)COc1cnc(N2CCC3(CC2)COC3)nc1` [Example 3], the remaining activity at 1 mg/kg is, setting by setting: under setting [1], 55.6 ± 10.5%; under setting [2], 15.2 ± 2.6%; under setting [3], 8.9 ± 3.2%.

Regarding `COC1CC2CCC(C1)N2c1ncc(OC/C(=C/F)CN)cn1` (stereo not shown) [Example 12], the remaining activity at 1 mg/kg came to 63.1 ± 12.1% under setting [1], 25.6 ± 3% under setting [2] and 24.6 ± 3.5% under setting [3].

With `NC/C(=C\F)COc1cnc(N2CCN(C3COC3)CC2)nc1` [Example 4, (E)-3-fluoro-2-(((2-(4-(oxbutan-3-yl)piperazin-1-yl)pyrimidin-5-yl)oxo)methyl)prop-2-en-1-amine], the remaining activity at 0.005 mg/kg worked out at 98.3 ± 25.4% under setting [1]; 99.2 ± 4.1% under setting [4]; 108 ± 33.5% under setting [5]; 94.9 ± 17.2% under setting [6]; 61.7 ± 8.2% under setting [2]; 65 ± 14% under setting [3]. Moreover, the remaining activity at 0.025 mg/kg by setting is: under setting [1], 143 ± 68.3%; under setting [4], 58.7 ± 12.1%; under setting [5], 14.4 ± 8.1%; under setting [6], 64 ± 20.3%; under setting [2], 58.6 ± 4.2%; under setting [3], 49.1 ± 7.1%. Moreover, the remaining activity at 0.12 mg/kg was determined as 75.4 ± 7.4% under setting [1]; 46.3 ± 3.5% under setting [4]; 40.1 ± 8.2% under setting [5]; 39.8 ± 11.3% under setting [6]; 33.7 ± 1.9% under setting [2]; 25.1 ± 5.3% under setting [3]. Moreover, the remaining activity at 0.12 mg/kg under setting [7] turned out to be 96.9 ± 21.7%. The remaining activity at 0.6 mg/kg came to 26.5 ± 11.8% under setting [1]; 26.2 ± 10.1% under setting [4]; 3 ± 7.6% under setting [5]; 14.1 ± 3.8% under setting [6]; 12.9 ± 2.2% under setting [2]; 8 ± 1.2% under setting [3]. The remaining activity at 0.6 mg/kg under setting [7] was 38.9 ± 3.2%. In addition, the remaining activity at 3 mg/kg by setting is: under setting [1], 22.1 ± 7.7%; under setting [4], 0.7 ± 1.8%; under setting [5], 5.3 ± 3.2%; under setting [6], 4.6 ± 2.5%; under setting [2], 1.8 ± 0.2%; under setting [3], 5.2 ± 2.4%. Moreover, the remaining activity at 3 mg/kg under setting [7] turned out to be 11.1 ± 4.4%. Besides, the remaining activity at 15 mg/kg was 4 ± 1.7% under setting [1]; 2.4 ± 1.3% under setting [4]; -2.4 ± 5.4% under setting [5]; 2.2 ± 0.2% under setting [6]; 1.1 ± 0.4% under setting [2]; 3 ± 2.2% under setting [3]. Besides, the remaining activity at 15 mg/kg under setting [7] was determined as 1.1 ± 0.9%.
